Target: T1, human TRPV4 (Homo sapiens, UniProt Q9HBA0)
T1 construct: expressed in transfected cells; host or cells: HEK293 MSRII cells (BacMam transduction)
Assay: Ligand-gated assay: FLIPR assay for human TRPV4 expressed in HEK293 MSRII cells
Type: cell-based
Conditions: HEK293 MSRII cells transduced with BacMam virus expressing human TRPV4; Fluo-4 calcium signal; agonist at EC80; read-out: activity (inhibition of Agonist Compound-induced calcium signal)
Excerpt: FLIPR Assay for Human TRPV4 Expressed in HEK293 MSRII Cells
TRPV4 channel activation results in an influx of divalent and monovalent cations including calcium. The resulting changes in intracellular calcium were monitored using a calcium specific fluorescent dye Fluo-4 (MDS Analytical Technologies). HEK293 MSRII cells (human embryonic kidney 293 cells stably expressing the macrophage scavenger receptor class II) transduced with BacMam virus expressing the human TRPV4 gene at 1% final concentration were plated in a 384 well poly-D lysine coated plate (15,000 cells/well in 50 μL culture medium containing DMEM/F12 with 15 mM HEPES, 10% FBS, 1% Penicillin-Streptomycin and 1% L-glutamine). Cells were incubated for 24-72 hours at 37° C. and 5% CO2. Culture medium was then aspirated using a Tecan plate-washer and replaced with 20 μL/well of dye loading buffer: HBSS, 500 μM Brilliant Black (MDS Analytical Technologies), and 2 μM Fluo-4 AM. Dye loaded plates were then incubated in the dark at room temperature for 1-1.5 hours. […] Calcium signals were measured using FLIPR^TETRA (MDS Analytical Technologies) or FLIPR384 (MDS Analytical Technologies) and the inhibition of Agonist Compound-induced calcium signal by the test compound was determined.

T1 sequence (Q9HBA0 whole entry): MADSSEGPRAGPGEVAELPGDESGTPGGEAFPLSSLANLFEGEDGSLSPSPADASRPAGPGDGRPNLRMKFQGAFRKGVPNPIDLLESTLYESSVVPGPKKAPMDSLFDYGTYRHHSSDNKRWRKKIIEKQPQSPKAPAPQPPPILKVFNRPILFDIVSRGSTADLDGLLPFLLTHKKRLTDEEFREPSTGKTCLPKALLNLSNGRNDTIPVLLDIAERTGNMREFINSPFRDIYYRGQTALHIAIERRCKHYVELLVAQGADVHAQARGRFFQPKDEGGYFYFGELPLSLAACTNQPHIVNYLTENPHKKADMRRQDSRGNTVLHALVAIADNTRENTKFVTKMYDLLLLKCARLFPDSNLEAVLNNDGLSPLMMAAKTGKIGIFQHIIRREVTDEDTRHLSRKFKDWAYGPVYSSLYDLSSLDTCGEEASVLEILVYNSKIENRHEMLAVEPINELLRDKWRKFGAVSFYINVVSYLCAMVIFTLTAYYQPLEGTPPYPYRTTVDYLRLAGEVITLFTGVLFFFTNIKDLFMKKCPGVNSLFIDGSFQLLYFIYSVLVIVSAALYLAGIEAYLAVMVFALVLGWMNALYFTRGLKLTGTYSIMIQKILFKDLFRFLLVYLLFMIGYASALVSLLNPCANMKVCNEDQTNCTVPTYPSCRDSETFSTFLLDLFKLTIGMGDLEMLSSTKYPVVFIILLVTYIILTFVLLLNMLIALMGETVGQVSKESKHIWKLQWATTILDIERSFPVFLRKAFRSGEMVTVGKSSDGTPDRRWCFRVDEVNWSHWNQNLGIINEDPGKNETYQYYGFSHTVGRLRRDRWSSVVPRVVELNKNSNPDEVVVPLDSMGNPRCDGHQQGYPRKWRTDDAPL

With `N#Cc1ccc2ncn(C[C@@]3(O)CCC[C@@]4(CN(c5cnc(C6CC6)cn5)C(=O)O4)C3)c2c1` [Compound A, 1-(((5S,7R)-3-(5-cyclopropylpyrazin-2-yl)-7-hydroxy-2-oxo-1-oxa-3-azaspiro[4.5]decan-7-yl)methyl)-1H-benzo[d]imidazole-6-carbonitrile] the IC50 was 6.3 nM.

Source: patent US10968209B2, “TRPV4 antagonist” (GlaxoSmithKline Intellectual Property (No.2) Limited, priority 2016, dated 2021)
